Structures are written as SMILES.

This data set in a line: Acid dissociation constant by alkali titration. It is filed as physicochemical. The note with it: mixed solvent of tetrahydrofuran/water=6/4 by volume at 25° C. The procedure: For measurement of the acid dissociation constant in the invention, employed is the alkali titration method described in Experimental Chemistry Course, 2nd Ed., pp. 215-217 (published by Maruzen).
The organic acid A is Tokyo Chemical's 1-benzyl-5-phenylbarbituric acid, and its acid dissociation constant in a mixed solvent of tetrahydrofuran/water=6/4 by volume at 25° C. is 4.0.

Regarding `O=C1NC(=O)N(Cc2ccccc2)C(=O)C1c1ccccc1` (stereo not shown) [organic acid A, 1-benzyl-5-phenylbarbituric acid], the acid dissociation constant amounted to 4.0.

(Values after patent publication US9201173B2, “Polarizer protective film, polarizer, and liquid crystal display device” (FUJIFILM CORPORATION, priority 2010, dated 2015).)
